Source: patent US10738083B2, “Influenza virus neutralizing peptidomimetic compounds” (Janssen Vaccines & Prevention B.V., priority 2015, dated 2020)
pIC50, pKd: −log10 of the molar value. *1 amine or outer side, *2 acyl side, *3 side chain or, on linkers, in order; H or OH if unused. Where a SMILES comes first, the peptide text is derived from it. Bridges are numbered along the chain shown (N, C = ends). [ ]: non-standard residue; d: D form. Phe(3,4-Cl2) = N[C@@H](Cc1ccc(Cl)c(Cl)c1)C(=O)O; X2 = O=C(CN(CC(=O)[*:2])CC(=O)[*:3])[*:1]; X1 = NCCC(=O)N[C@@H](CN[*:2])C(=O)[*:1]; Ala(cPent) = N[C@@H](CC1CCCC1)C(=O)O; Glutaryl = O=C(CCCC(=O)[*:2])[*:1]; hhPhe = N[C@@H](CCCc1ccccc1)C(=O)O; NMeL = CN[C@@H](CC(C)C)C(=O)O; Orn = NCCC[C@H](N)C(=O)O; βAla = NCCC(=O)O

Experiments:
[1] = biological target: H1 HA A/Brisbane/59/07 (Influenza A virus, UniProt D5F1Q8); assay: AlphaLISA binding competition, HA + stem-binder
From the text: (§1) Binding competition studies were designed to test compounds for competition with other well characterized HA binding proteins (including e.g. CR9114) with known epitopes on HA. The epitopes where either located at the stem of the HA (viral membrane proximal part of HA) or, for control purposes, at the head of HA (viral membrane distal part of HA). If competition was observed, it is assumed that both molecules bind to a similar or at least overlapping epitope at the surface of HA. Competition with a HA head- and stem-binder was interpreted as unspecific binding.
(§2) Hereto an AlphaLISA competition assay (Perkin Elmer) was established which relied on biotinylated full length and trimeric HA proteins (Protein Sciences, 10 μL, 0.5 nM final concentration in 50 μL) bound by HA-specific binders. The interaction between HA and the binder was detected after 1 h incubation at room temperature (RT) with two beads, a streptavidin donor bead recognizing HA (10 μL of 10 μg/mL) and an anti Fc bead (10 μg/mL) recognizing the IgGs used. If after an additional hour of incubation at RT the excited donor bead (680 nm) and acceptor bead are in close proximity, an energy transfer (singlet oxygen) can be measured as a luminescence signal of the acceptor bead (Perkin Elmer EnVision plate reader). The signal intensity in this homogeneous assay format is directly proportional to the binding strength (affinity/avidity) between both binding partners.

[2] = biological target: T1, H1 HA A/California/07/2009 (Influenza A virus, UniProt C3W5X2); assay: AlphaLISA binding competition, HA + stem-binder
From the text: as §1, §2

[3] = biological target: H1 HA A/New Caledonia/20/1999 (Influenza A virus, UniProt Q6WG00); assay: AlphaLISA binding competition, HA + stem-binder
From the text: as §1, §2

[4] = biological target: T1, H1 HA A/California/07/2009; assay: AlphaLISA binding competition, HA + head-binder (control)
From the text: as §1, §2

[5] = biological target: HA A/California/07/09 (H1) (Influenza A virus, UniProt C3W5X2); assay: biochemical; type: binding; conditions: for koff: read-out: dissociation rate kd
[6] = biological target: HA A/New Caledonia/20/99 (H1) (Influenza A virus, UniProt Q6WG00); assay: biochemical; type: binding; conditions: for koff: read-out: dissociation rate kd
[7] = biological target: HA A/Vietnam/1194/04 (H5) (Influenza A virus, UniProt A5A5M5); assay: biochemical; type: binding; conditions: for koff: read-out: dissociation rate kd

SMILES	pIC50 [1]	pIC50 [2]	pIC50 [3]	pIC50 [4]	pKd [5]	koff [5] [s⁻¹]	pKd [6]	koff [6] [s⁻¹]	pKd [7]	koff [7] [s⁻¹]
CC(=O)N[C@@H](CCCc1ccccc1)C(=O)N[C@H]1CCCNC(=O)[C@@H](NC(=O)CCN)CNC(=O)[C@H](CO)NC(=O)[C@H](CC(C)C)NC(=O)[C@H](Cc2c[nH]c3ccccc23)NC(=O)[C@H](CCC(=O)O)NC(=O)[C@H](Cc2ccccc2)NC(=O)[C@H](Cc2ccc(O)cc2)NC(=O)[C@H](CCC(=O)O)NC(=O)[C@H](CC(C)C)NC1=O [CP141099] (Ac-[hhPhe][Orn]LEYFEWLS; linker 2-C via X1)	7.17	7.23	7.56	< 4.30	7.58	0.252	7.60	0.101	7.56	0.0652
CC(=O)N[C@@H](CCCc1ccccc1)C(=O)N[C@H]1CCCNC(=O)CCNC(=O)[C@H](CO)NC(=O)[C@H](CC(C)C)NC(=O)[C@H](Cc2c[nH]c3ccccc23)NC(=O)[C@H](CCC(=O)O)NC(=O)[C@H](Cc2ccc(Cl)c(Cl)c2)NC(=O)[C@H](Cc2ccc(O)cc2)NC(=O)[C@H](CCC(=O)O)NC(=O)[C@H](CC(C)C)NC1=O [CP141019] (Ac-[hhPhe][Orn]LEY[Phe(3,4-Cl2)]EWLS[βAla]; lactam 2-C)	7.33	7.15	7.30	< 4.30	7.77	0.182	7.75	0.0589	7.50	0.0533
CC(=O)N[C@@H](CCCc1ccccc1)C(=O)N[C@H]1CCCNC(=O)CCNC(=O)[C@H](CO)NC(=O)[C@H](CC(C)C)NC(=O)[C@H](Cc2c[nH]c3ccccc23)NC(=O)[C@H](CCC(=O)O)NC(=O)[C@H](Cc2ccccc2)NC(=O)[C@H](Cc2ccc(O)cc2)NC(=O)[C@H](CCCCNC(=O)CCCC(=O)O)NC(=O)[C@H](CC(C)C)NC1=O [CP141066] (Ac-[hhPhe][Orn]LK(Glutaryl)YFEWLS[βAla]; lactam 2-C)	–	6.61	6.73	< 4.30	–	–	–	–	–	–
CC(=O)N[C@@H](CCCc1ccccc1)C(=O)N[C@H]1CCCNC(=O)CCNC(=O)[C@H](CO)NC(=O)[C@H](CC(C)C)NC(=O)[C@H](Cc2c[nH]c3ccccc23)NC(=O)[C@H](CCC(=O)O)NC(=O)[C@H](Cc2ccccc2)NC(=O)[C@H](Cc2ccc(O)cc2)NC(=O)[C@H](CCC(=O)O)NC(=O)[C@H](CC2CCCC2)NC1=O [CP141036] (Ac-[hhPhe][Orn][Ala(cPent)]EYFEWLS[βAla]; lactam 2-C)	6.84	6.40	6.87	< 4.30	–	–	–	–	–	–
CC(=O)N[C@@H](CCCc1ccccc1)C(=O)N[C@H]1CCCNC(=O)CCNC(=O)[C@H](CO)NC(=O)[C@H](CC(C)C)NC(=O)[C@H](Cc2c[nH]c3ccccc23)NC(=O)[C@H](CCC(=O)O)NC(=O)[C@H](Cc2ccccc2)NC(=O)[C@H](Cc2ccc(O)cc2)NC(=O)[C@H](CCC(=O)O)NC(=O)[C@H](CC(C)C)N(C)C1=O [CP141037] (Ac-[hhPhe][Orn][NMeL]EYFEWLS[βAla]; lactam 2-C)	7.06	6.69	7.09	< 4.30	7.21	0.184	7.35	0.0753	7.19	0.0845
CC(=O)N[C@@H](CCCNC(=N)N)C(=O)N[C@H]1CCCNC(=O)CN2CC(=O)NCCC[C@@H](C(N)=O)NC(=O)[C@H](CO)NC(=O)[C@H](CC(C)C)NC(=O)[C@H](Cc3c[nH]c4ccccc34)NC(=O)[C@H](CCC(=O)O)NC(=O)[C@H](Cc3ccccc3)NC(=O)[C@H](Cc3ccc(O)cc3)NC(=O)[C@H](CCCNC(=O)C2)NC(=O)[C@H](CC(C)C)NC1=O [CP141032] (Ac-R[Orn]L[Orn]YFEWLS[Orn]-NH2; linker 2-4-11 via X2)	–	5.02	5.65	< 4.30	–	–	–	–	–	–
CC(=O)N[C@@H](CCCc1ccccc1)C(=O)N[C@H]1CCCNC(=O)CCNC(=O)[C@H](CO)NC(=O)[C@H](CC(C)C)NC(=O)[C@H](Cc2c[nH]c3ccccc23)NC(=O)[C@H](CCC(=O)O)NC(=O)[C@H](Cc2ccccc2)NC(=O)[C@H](Cc2ccc(O)cc2)NC(=O)[C@H](CCCNC(=N)N)NC(=O)[C@H](CC(C)C)NC1=O [CP132070] (Ac-[hhPhe][Orn]LRYFEWLS[βAla]; lactam 2-C)	–	6.54	6.75	< 4.30	–	–	–	–	–	–
